Test results reported in patent US20150219624A1, “METHODS FOR IDENTIFYING ANTI-CANCER COMPOUNDS” (MEMORIAL SLOAN KETTERING CANCER CENTER, priority 2013, published 2015).

What was measured:
KOPTK1 cells [1] = test: Polysome profiling; assay type: cell-based, human; details: 25 nM, 45 minutes
Description: Polysome profiling. KOPTK1 cells were treated with silvestrol or DMSO for 45 minutes, followed by cycloheximide treatment for 10 minutes. Cell pellet was lysed in polysome lysis buffer (300 mM NaCl, 15 mM Tris-HCl (pH 7.5), 15 mM MgCl2, 1% TritonX-100, 0.1 mg/ml Cycloheximide, 1 mg/ml Heparin). Polysome fractions were isolated using 4 ml 10-50% sucrose density gradients (300 mM NaCl, 100 mM MgCl2, 15 mM Tris-HCl (pH 7.5), 1 mg/ml Cycloheximide, 10 mg/ml Heparin). Gradients were centrifuged in an SW40Ti rotor at 35,000 rpm for 2 hrs. Fractions of 100 ul were collected manually from the top, and optical density (OD) at […] was measured.
FIG. 10 depicts ribosome profiling quality control data and effects on translation. A and B) Read counts by length of mapped sequence before and after filtering rRNA, linker reads, non-coding RNAs, short mapped sequences (“noisy” reads; see text and method for details). C and D) Read length frequency histograms and mapping analysis of ribosome footprint data after quality control filtering for vehicle treated cells (C) or silvestrol treated cells (D). […] F) Histogram of all genes' ribosome footprint intensity (measured as unique read number per million per gene, RPM) for silvestrol and vehicle treated cells indicating silvestrol affected mRNAs were broadly distributed (see text for details). […]

KOPTK1 cells [2] = test: Metabolic labeling of nascent protein with L-azidohomoalanine (AHA); assay type: cell-based, human; details: 25 nM; p vs. vehicle 3.6×10−3
Description: (Non-radioactive) Metabolic labeling of nascent protein. KOPTK1 cells were labeled for nascent protein synthesis using Click-iTR AHA (L-azidohomoalanine) metabolic labeling reagent obtained from Invitrogen (cat no. C10102) as per manufacturer's instructions. Briefly, following silvestrol, Cycloheximide or DMSO treated cells were incubated in methionine free medium for 30 min prior to AHA labeling for 1 hr. Cells were fixed with 4% paraformaldehyde in PBS for 15 min, permeablized with 0.25% Triton X-100 in PBS for 15 min followed by one wash with 3% BSA. Cells were then stained using Alexa Fluor 488 Alkyne (Invitrogen cat no. A10267) with Click-iT Cell reaction Buffer Kit (Invitrogen cat no. C10269). Changes in mean fluorescence intensity as a measure of newly synthesized protein was detected by Flow cytometry analysis.
The number of ribosomes occupying a given transcript is given as gene specific RF reads per one million total reads (RPM).
FIG. 10 depicts ribosome profiling quality control data and effects on translation. A and B) Read counts by length of mapped sequence before and after filtering rRNA, linker reads, non-coding RNAs, short mapped sequences (“noisy” reads; see text and method for details). C and D) Read length frequency histograms and mapping analysis of ribosome footprint data after quality control filtering for vehicle treated cells (C) or silvestrol treated cells (D). […]

human T-ALL lines = test: Activity in established human T-ALL cell lines; assay type: cell-based; details: PTEN wild type vs PTEN mutant

## COC(=O)[C@H]1[C@@H](O)[C@@]2(O)c3c(OC)cc(O[C@@H]4O[C@@H]([C@H](O)CO)CO[C@H]4OC)cc3O[C@@]2(c2ccc(OC)cc2)[C@@H]1c1ccccc1 [silvestrol]
KOPTK1 cells [1]
  polyribosome bound RNA (fractions 30-40): loss of polyribosome bound RNA
KOPTK1 cells [2]
  max. reduction of nascent protein synthesis (AHA labeling): ~60%
Human T-ALL lines
  activity against PTEN wild type and PTEN mutant cell lines and primary T-ALL cells: equal activity
